Assay results as given in patent US9814704B2, “Substituted pyrrolo[2,3-b]pyridines as MLK inhibitors” (The University of Rochester, priority 2008, dated 2017).
Read-outs that look alike come from different tables or passages of the source.

Key:
MLK3 = MLK3 (Homo sapiens (Human), UniProt Q16584); experiment: Radiometric Filter Plate MLK3 Assay; assay type: biochemical; conditions: read-out: MK3 IC50
Experimental: Radiometric Filter Plate MLK3 Assay
After a twenty minute incubation, the reactions were washed through filter plates and read on a scintillation counter. Results are shown in Table 4 below, in which +++ indicates ≦0.1 μM, ++ indicates >0.1 μM and ≦1 μM, and + indicates >1 μM.

[1] = Pharmacokinetic Evaluation in Mice; assay type: in vivo; design: unit not given here; conditions: single intravenous (IV) injection at 10 mg/kg, CL57 BL/6 mice, brain homogenate
Experimental: Pharmacokinetic Evaluation in Mice
Several compounds disclosed herein were evaluated in a standard murine pharmacokinetic model.
Compounds were dissolved in either 5% DMSO, 40% PEG400, and 55% saline (pH=8) or […], 40% PEG400, and 55% (20% HP-β-CD in deionized water; pH=8) to yield a nominal concentration of 2 mg/mL for intravenous administration. Compounds were administered via a single intravenous (IV) injection in CL57 BL/6 mice at 10 mg/kg in DMSO/PEG400 solution. Three mice in each group were used for blood and brain collection at each time point. Blood samples (300 μL) were collected via the retro-orbital vein predose and at 5 min, 0.25, 0.50, 1, 2, 4, 6, 8, and 24 hours postdose. Blood samples were placed into tubes containing sodium heparin and centrifuged under refrigerated conditions at 8000 rpm for 6 minutes to separate plasma from the samples. The brain of each animal was collected after the final blood collection. The whole tissue was harvested, excised and rinsed by saline, dried by filter paper, and then placed into one tube per tissue per animal. All samples were stored at −20° C. until bioanalysis.
Compound concentrations in plasma and brain homogenate were determined using a high performance liquid chromatography/mass spectrometry (HPLC/MS/MS) method (Agilent 1100 series HPLC, AB Inc. API4000 triple-quadrupole with an ESI interface and Analyst 1.4 software).
Results in the form of area under the time-versus-concentration curve (AUC) are given below in Table 5.

[2] = 200 ng (130 nM) MLK3, 1 μM inactive MKK7b, 2 μM cold ATP (Km), 33P ATP, twenty minute incubation

Chain of MLK3 (Q16584 whole entry): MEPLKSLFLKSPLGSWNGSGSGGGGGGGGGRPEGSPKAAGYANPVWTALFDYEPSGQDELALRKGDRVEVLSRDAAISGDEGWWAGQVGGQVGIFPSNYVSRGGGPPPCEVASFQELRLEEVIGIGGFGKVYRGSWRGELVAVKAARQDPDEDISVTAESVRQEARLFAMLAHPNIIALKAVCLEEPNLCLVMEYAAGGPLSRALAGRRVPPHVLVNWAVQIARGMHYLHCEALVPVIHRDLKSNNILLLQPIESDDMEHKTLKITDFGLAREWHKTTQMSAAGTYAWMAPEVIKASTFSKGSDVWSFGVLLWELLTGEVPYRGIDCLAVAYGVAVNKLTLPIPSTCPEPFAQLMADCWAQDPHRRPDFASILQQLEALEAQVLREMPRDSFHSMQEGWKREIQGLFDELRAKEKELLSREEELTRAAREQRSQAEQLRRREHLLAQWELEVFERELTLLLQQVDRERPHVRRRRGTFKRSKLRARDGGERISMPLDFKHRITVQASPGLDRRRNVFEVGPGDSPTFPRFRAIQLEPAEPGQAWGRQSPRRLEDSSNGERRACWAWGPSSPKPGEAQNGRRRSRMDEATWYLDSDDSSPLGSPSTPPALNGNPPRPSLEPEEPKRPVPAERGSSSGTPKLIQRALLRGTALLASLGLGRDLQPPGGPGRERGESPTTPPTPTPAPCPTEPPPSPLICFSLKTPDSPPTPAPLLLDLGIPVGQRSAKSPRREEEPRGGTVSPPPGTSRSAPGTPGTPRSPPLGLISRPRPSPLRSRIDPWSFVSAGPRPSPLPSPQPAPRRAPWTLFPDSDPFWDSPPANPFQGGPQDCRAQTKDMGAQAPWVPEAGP

| Structure (SMILES) | IC50 (MLK3) | AUC Brain [1] | IC50 (MLK3; [2]) |
| --- | --- | --- | --- |
| COc1cc(-c2cnc3[nH]cc(-c4ccc5[nH]ccc5c4)c3c2)cc(OC)c1OC [Example 1, 3-(1H-indol-5-yl)-5-(3,4,5-trimethoxyphenyl)-1H-pyrrolo[2,3-b]pyridine] | 100 to 1000 nM | + (+ indicates ≧500) |  |
| Nc1ccc(-c2cnc3[nH]cc(-c4ccc5[nH]ccc5c4)c3c2)cn1 [Example 4, 5-(3-(1H-indol-5-yl)-1H-pyrrolo[2,3-b]pyridin-5-yl)pyridin-2-amine] |  | − (− indicates <500) | < 100 nM |
| COc1cc(-c2cnc3[nH]cc(-c4ccc(N)nc4)c3c2)cc(OC)c1OC [Example 18, 5-(5-(3,4,5-trimethoxyphenyl)-1H-pyrrolo[2,3-b]pyridin-3-yl)pyridin-2-amine] |  | − (− indicates <500) | < 100 nM |
| CN1CCN(Cc2ccc(-c3cnc4[nH]cc(-c5ccc6[nH]ccc6c5)c4c3)cc2)CC1 [Example 32, 3-(1H-indol-5-yl)-5-(4-((4-methylpiperazin-1-yl)methyl)phenyl)-1H-pyrrolo[2,3-b]pyridine] | < 100 nM | + (+ indicates ≧500) |  |
| COc1cc(-c2cnc3[nH]cc(-c4cnc(N)nc4)c3c2)cc(OC)c1OC [Example 17, 5-(5-(3,4,5-trimethoxyphenyl)-1H-pyrrolo[2,3-b]pyridin-3-yl)pyrimidin-2-amine] |  | − (− indicates <500) | < 100 nM |
| Nc1ncc(-c2cnc3[nH]cc(-c4ccc5[nH]ccc5c4)c3c2)cn1 [Example 9, 5-(3-(1H-indol-5-yl)-1H-pyrrolo[2,3-b]pyridin-5-yl)pyrimidin-2-amine] |  | + (+ indicates ≧500) | < 100 nM |
| CN(C)Cc1ccc(-c2cnc3[nH]cc(-c4ccc5[nH]ccc5c4)c3c2)cc1 [Example 33, 1-(4-(3-(1H-indol-5-yl)-1H-pyrrolo[2,3-b]pyridin-5-yl)phenyl)-N,N-dimethylmethanamine] |  |  | < 100 nM |
| O=c1[nH]c2ncc(-c3cc(Cl)cc(Cl)c3)nc2n1-c1ccc2[nH]ccc2c1 [Example 48, 6-(3,5-dichlorophenyl)-1-(1H-indol-5-yl)-1H-imidazo[4,5-b]pyrazin-2(3H)-one] |  |  | > 1000 nM |
| COc1cc(-c2cnc3[nH]c(=O)n(-c4ccc5[nH]c(C)cc5c4)c3n2)cc(OC)c1OC [Example 72, 1-(2-methyl-1H-indol-5-yl)-6-(3,4,5-trimethoxyphenyl)-1H-imidazo[4,5-b]pyrazin-2(3H)-one] |  |  | < 100 nM |
| CN(C)c1ccc(-c2cnc3[nH]cc(-c4ccc(F)c(Cl)c4)c3c2)cn1 [Example 22, 5-(3-(3-chloro-4-fluorophenyl)-1H-pyrrolo[2,3-b]pyridin-5-yl)-N,N-dimethylpyridin-2-amine] |  |  | > 1000 nM |

Now from value to molecule:

| IC50 (MLK3) | AUC Brain [1] | IC50 (MLK3; [2]) | Structure (SMILES) |
| --- | --- | --- | --- |
|  |  | < 100 nM | CC(C)(C)OC(=O)N1CCN(C(=O)c2cccc(-c3cnc4[nH]cc(-c5ccc(C(N)=O)cc5)c4c3)c2)CC1 [Example 151, 4-{3-[3-(4-carbamoyl-phenyl)-1H-pyrrolo[2,3-b]pyridin-5-yl]-benzoyl}-piperazine-1-carboxylic acid tert-butyl ester] |
| 100 to 1000 nM |  |  | COc1cc(-c2cnc3[nH]c(=O)n(CC4CC4)c3n2)ccc1OCCN1CCOCC1 [Example 107, 1-(cyclopropylmethyl)-6-(3-methoxy-4-(2-morpholinoethoxy)phenyl)-1H-imidazo[4,5-b]pyrazin-2(3H)-one] |
|  |  | > 1000 nM | COc1cc(OC)c(-c2cnc3[nH]c(=O)n(C4CCCC4)c3n2)c(OC)c1 [Example 94, 1-cyclopentyl-6-(2,4,6-trimethoxyphenyl)-1H-imidazo[4,5-b]pyrazin-2(3H)-one] |
| 100 to 1000 nM |  |  | COc1ccc(-c2cnc3[nH]c(=O)n(-c4cnc5[nH]ccc5c4)c3n2)cc1OC [Example 111, 6-(3,4-dimethoxyphenyl)-1-(1H-pyrrolo[2,3-b]pyridin-5-yl)-1H-imidazo[4,5-b]pyrazin-2(3H)-one] |
| 100 to 1000 nM |  |  | COc1cc(-c2cnc3[nH]c(=O)n(-c4ccc5cn[nH]c5c4)c3n2)cc(OC)c1OC [Example 90, 1-(1H-indazol-6-yl)-6-(3,4,5-trimethoxyphenyl)-1H-imidazo[4,5-b]pyrazin-2(3H)-one] |
|  |  | < 100 nM | CN1CCN(Cc2ccc(-c3c[nH]c4ncc(-c5ccc(C(N)=O)cc5)cc34)cc2)CC1 [Example 162, 4-{3-[4-(4-methyl-piperazin-1-ylmethyl)-phenyl]-1H-pyrrolo[2,3-b]pyridin-5-yl}-benzamide] |
|  |  | > 1000 nM | O=c1[nH]c2ncc(-c3ccc(N4CCOCC4)cc3)nc2n1-c1ccc2scnc2c1 [Example 100, 1-(benzo[d]thiazol-5-yl)-6-(4-morpholinophenyl)-1H-imidazo[4,5-b]pyrazin-2(3H)-one] |
|  |  | > 1000 nM | O=c1[nH]c2ncc(-c3cc(Cl)cc(Cl)c3)nc2n1CC1CC1 [Example 80, 1-(cyclopropylmethyl)-6-(3,5-dichlorophenyl)-1H-imidazo[4,5-b]pyrazin-2(3H)-one] |
| 100 to 1000 nM |  |  | COc1cc(-c2cnc3[nH]cc(-c4ccc(CNC(=O)CCc5ccccc5)cc4)c3c2)cc(OC)c1OC [Example 161, 3-phenyl-N-{4-[5-(3,4,5-trimethoxy-phenyl)-1H-pyrrolo[2,3-b]pyridin-3-yl]-benzyl}-propionamide] |
|  |  | > 1000 nM | COc1cc(-c2cnc3c(c2)C(Cc2cccnc2)C(=O)N3)cc(OC)c1OC (stereo not drawn) [Example 135, 3-pyridin-3-ylmethyl-5-(3,4,5-trimethoxy-phenyl)-1,3-dihydro-pyrrolo[2,3-b]pyridin-2-one] |
|  |  | > 1000 nM | COc1cc(-c2cnc3c(c2)C(=Cc2ccc(C#N)cc2)C(=O)N3)cc(OC)c1OC [Example 133, 4-[2-oxo-5-(3,4,5-trimethoxy-phenyl)-1,2-dihydro-pyrrolo[2,3-b]pyridin-3-ylidenemethyl]-benzonitrile] |
